Test results: patent US8784911B2, “Compositions for treatment and prevention of diabetic complications using Osteomeles schwerinae” (Korea Institute of Oriental Medicine, priority 2009, dated 2014)
Where two headings read alike, the source gives them in different places.

Key:
[1] = system: advanced glycation endproduct generation (bovine serum albumin with fructose and glucose); assay: In vitro inhibitory effect on advanced glycation endproduct generation (BSA + fructose/glucose, fluorescence); assay type: biochemical
Method: Inhibitory effect of Osteomeles schwerinae small twig/leaf extract, fractions thereof obtained from each of hexane layer, ethyl acetate layer, butanol layer and water layer of the extract, and Osteomeles schwerinae seed extract on advanced glycation endproduct generation was investigated in vitro. Bovine serum albumin (BSA, Sigma, USA) was used as a protein source. BSA was added to 50 mM phosphate buffer (pH 7.4) at the concentration of 10 mg/ml. As a sugar source, the mixed solution of 0.2 M fructose and 0.2 M glucose was used. The mixed solution of fructose and glucose was added to the BSA solution. Osteomeles schwerinae small twig/leaf extract was prepared at different concentrations of 5 μg/ml, 10 μg/ml and 25 μg/ml. Hexane layer was also prepared at the concentrations of 10 μg/ml, 25 μg/ml and 50 μg/ml. Ethyl acetate layer was prepared at different concentrations of 5 μg/ml, 10 μg/ml and 25 μg/ml. Butanol layer and water layer were respectively prepared at the concentrations of 2.5 μg/ml, 5 μg/ml and 10 μg/ml. Osteomeles schwerinae seed extract was also prepared at different concentrations of 5 μg/ml, 10 μg/ml and 25 μg/ml. (All of those compounds were dissolved in DMSO, to which 15% tween 80 was added. At this time, the content of DMSO was 0.2%). Each extract or fraction was mixed with the mixed solution of BSA and sugars, followed by culture at 37° C. for 14 or 28 days. At this time, 0.02% sodium azide and antimycotics were added thereto as the antibacterial and antifungal agent. For the control, the mixed solution of BSA and sugars was cultured. The blank groups of each experimental and the control were composed as the above but not cultured. For the positive control, which would be used as an index for the comparison of the effect, aminoguanidine was used. To avoid error, 4 of each culture solution were prepared. 14 or 28 days later, the content of advanced glycation endproducts generated in each culture solution was measured and compared. AGEs therein were fluorescent and brown colored. They have physiochemical properties for the cross-linking and also have ligand that can be recognized by cell membrane receptor. The amount of AGEs having the said properties was measured with microplate reader (Excitation: 350 nm, Emission: 450 nm) to analyze the inhibitory effect on the generation of AGEs (Vinson, J. A. et al., J. Nutr. Biochem., 7: 659-663, 1996).
Inhibitory rate of generation was calculated by the following formula. Inhibitory rate of generation(%)=100−(fluorescence intensity of experimental group sample−fluorescence intensity of empty sample)/(fluorescence intensity of control group sample−fluorescence intensity of control group empty sample)×100
Aminoguanidine was dissolved in distilled water and then cultured at the concentrations of 37 μg/ml, 55.5 μg/ml and 74 μg/ml at 37° C. for 14 days and also cultured at the concentrations of 18.5 μg/ml, 37.0 μg/ml and 92.5 μg/ml for 28 days by the same manner as described above. The amount of advanced glycation endproducts generated in each culture solution was measured with microplate reader (Excitation: 350 nm, Emission: 450 nm). Inhibitory effect of Osteomeles schwerinae small twig/leaf extract, its fractions and Osteomeles schwerinae seed extract on advanced glycation endproduct generation was measured in vitro by the same manner as described above and the results are shown in Table 2.

aldose reductase = target: T1, aldose reductase (Rattus norvegicus, UniProt P07943); assay: In vitro inhibitory effect on aldose reductase activity; assay type: biochemical, SD rat; settings: for inhibition of aldose reductase activity: compounds isolated from Osteomeles schwerinae extract
T1 construct: To obtain natural aldose reductase from eyeballs of SD rat; from tissue; host or cells: lens of Sprague-Dawley rat (homogenate supernatant)
Method: To obtain natural aldose reductase from eyeballs of SD rat (Sprague-Dawley rat, 250-280 g) by the method of Dufrane (1984), the extracted lens were pulverized together with 135 mM Na, K-phosphate buffer (pH 7.0), and 10 mm 2-mercaptoethanol using homogenizer and sonicater. After performing centrifugation at 14000 rpm for 30 minutes, the supernatant was filtered with 0.2 μm filter at 4° C. Quantification was performed by Lowry method using BSA as a protein source of enzyme. The mixture of 135 mM Na, K-phosphate buffer (pH 7.0), 100 mM lithium sulfate, 0.03 mM NADPH, 0.04 mM DL-glyceraldehyde and 100 μg/ml enzyme was dissolved in 0.1% DMSO, which was added to 50 μl of each sample diluted at different concentrations. Total volume of the mixture was adjusted to 1 ml, followed by reaction at 37° C. for 10 minutes. […] The reaction was terminated by adding 0.3 ml of 0.5 N HCl, to which 1 in of 6 M NaOH supplemented with 10 mM imidazole wad added, followed by reaction at 60° C. for 10 minutes. Then, conversion rate (NADP fluorescent product) was measured. Each sample was tested in triplicate. Inhibition effect was measured by using spectrofluorophotometric detector (Ex. 360 nm, Em. 460 nm, Bio-TEK, Synergy HT, USA) and the results were presented as IC50.

[2] = system: type I diabetes animal model induced by streptozotocin (STZ); assay: Type I diabetes animal model induced by streptozotocin; assay type: in vivo, SD rat
Method: Fully adapted (for 1 week) SD rats (6 weeks, 180-200 g) were used. After adaptation, the rats were fasted for 16 hours. Before the administration of samples, streptozotocin dissolved in 0.1 M citrate buffer (pH 4.5) was treated once by peritoneal injection (60 mg/kg). A week after the peritoneal injection, blood glucose level was measured at fasted or non-fasted state. Rats showing blood glucose level of at least 250 mg/dl at fasted state were selected and distributed fairly with considering the average. 5 groups were prepared as follows: the normal group treated with nothing (presented as Nor), the normal group treated with 200 mg/kg of Osteomeles schwerinae extract (presented as N+OS-141), the group induced with diabetes (presented as DM), the diabetes group treated with 100 mg/kg of Osteomeles schwerinae extract (presented as OS-100), and the positive control group treated with aminoguanidine (presented as AG). Osteomeles schwerinae extract and aminoguanidine were dissolved in water, which were administered orally to the rats every day (5 ml/kg) for 8 weeks. 8 weeks later, the animals were fasted, followed by autopsy. Blood was drawn from saphenons vein. Plasma was separated by centrifuging the whole blood at 3000 rpm at 4° C. The plasma was stored at −70° C. for the later use for data analysis. Each organ was weighed and frozen by using liquid nitrogen, which was stored at 70° C.
Urine was taken for 24 hours on the last week before autopsy to comparatively observe renal function indices and oxidative stress factors. ELISA was performed to measure AGEs and podocyte (synaptopodin). Urine was mixed with coating buffer (50 mM carbonate buffer, pH 9.6) at the ratio of 1:2, which was distributed in 96 well plate (100 μl/well). After incubating the plate at 37° C. for 3 hours, the plate was washed with 0.05% PBST three times, and blocked with 3% skim milk. The plate was stood for one hour and then washed. AGEs (Transgenic, Japan) and synaptopodin (Santa Cruz, USA) antibody were diluted at the ratio of 1:1000 respectively, followed by loading in each well of the plate by 100 μl, which stood at 37° C. for 2 hours. After washing the plate with 0.05% PBST, HRP-conjugated 2nd antibody was loaded in each well of the plate by 100 μl, which stood at 37° C. for 1 hour. 3,3′,5,5′-tetramethylbenzidine (TMB) was added in each well of the plate by 100 μl. Five minutes later, reaction termination solution (1M H2SO4) was added in each well of the plate by 100 μl and then OD was measured with ELISA reader. Albuminuria and creatinine (Cr) used as renal function indices were measured.
Kidney was extracted during autopsy, which was fixed in 10% neutralized formalin, followed by dehydration. The kidney was substituted with xylene three times, followed by embedding with paraffin. The embedded tissue block was cut into 4 μm sections, which were placed on microscope slide. PAS staining was performed to observe morphological changes. The stained slide was observed under optical microscope. […] To investigate fibrosis by collagen infiltrated in kidney cortex, Masson's trichrome staining was performed. Multiple numbers of collagen stained as blue by Masson's trichrome were observed around glomerular, basement membrane and in interstitial area between renal tubules in the diabetes group, but the difference was not significant from that of the normal group. […] Histological changes were traced 8 weeks after inducing diabetes. […]

[3] = 24 h urine, last week, vs diabetes group
[4] = STZ diabetic rats, 100 mg/kg oral daily, 8 weeks

Q: For `CC(=O)OC1C(c2c(O)cc(O)c3c(=O)cc(-c4ccc(O)cc4)oc23)OC(CO)C(O)C1O` (centres unmarked) [2-O-acetylvitexin], which “inhibition of advanced glycation endproduct generation” value ([1]; compounds isolated from Osteomeles schwerinae extract) is on record?
A: The value was “confirmed to inhibit”.

Q: What about the “inhibition of aldose reductase activity” value (aldose reductase) of the same compound?
A: The value was “confirmed to inhibit”.

Q: Which results are given for `O=C(O)CC1(CC(=O)O)CCCC1` [3,3-tetramethyleneglutaric acid]?
A: inhibition at 3.72 µg/mL (aldose reductase; 3.72 μg/ml (20 μm)): 39.3 ± 4.17%; inhibition at 4.66 µg/mL (aldose reductase; 4.66 μg/ml (25 μm)): 55.7 ± 3.25%; inhibition at 5.59 µg/mL (aldose reductase; 5.59 μg/ml (30 μm)): 60.3 ± 1.39%; IC50 (aldose reductase; read-out: inhibitory effect (IC50) on aldose reductase): 24.1 µM; IC50 (aldose reductase; read-out: inhibitory effect (IC50, μg/ml) on aldose reductase (converted)): 24.2 µM

Q: With `Oc1cc(O)c2c(c1)O[C@H](c1ccc(O)c(O)c1)[C@H](O)C2` [(−)-epicatechin] as the compound, how does the “inhibition of advanced glycation endproduct generation” value [1] read?
A: Its value is “confirmed to inhibit”.

Q: What about the “inhibition of aldose reductase activity” value (aldose reductase) of the same compound?
A: The value was “confirmed to inhibit”.

Q: `N=C(N)NN` [Aminoguanidine] was tested. Which “expressions of AGEs and RAGE in kidney” value ([2]; 100 mg/kg) did it give?
A: Its value is “significantly reduced”.

Q: And the “podocyte loss in glomerulus, synaptopodin and WT1 staining” value ([2]; 100 mg/kg, vs diabetes group)?
A: The value was “podocyte loss was reduced”.

Q: And the “fibrosis by collagen in kidney cortex, Masson's trichrome staining” value ([2]; 8 weeks)?
A: Its value is “such change was not peculiar”.

Q: What about the “glomerular basement membrane thickening, PAS staining” value ([2]; 8 weeks, vs untreated diabetes group) of the same compound?
A: The value was “any change in glomerular basement membrane thickening was not observed”.

Q: And the “Albuminuria” value [2, 3]?
A: Its value is “decreased significantly”.

Q: What about the “Urine alb/Cr” value [2, 3] of the same compound?
A: The value was “decreased”.

Q: And the “Body weight (g) Initial” value ([2]; STZ diabetic rats, 100 mg/kg)?
A: The value was 244.3 ± 4.02 g.

Q: And the “ALT (U/L)” value [2, 4]?
A: Its value is 158.9 ± 26.25 U/L.

Q: And the “AST (U/L)” value [2, 4]?
A: Its value is 341.6 ± 70.90 U/L.

Q: What about the “Body weight (g) Final” value [2, 4] of the same compound?
A: Its value is 210.3 ± 9.98 g.

Q: What about the “8-OHdG in kidney” value ([2]; vs diabetes group) of the same compound?
A: The value was “reduced in the group treated with AG, but the decrease was not that significant”.

Q: And the “inhibitory effect (IC50, μg/ml)” value ([1]; 14 day)?
A: The value was 71.13 µg/mL.

Q: What about the “Inhibitory effect (%)” value ([1]; 14 day, 37 μg/ml) of the same compound?
A: Its value is 27.42 ± 1.51%.

Q: And the “Inhibitory effect (%)” value ([1]; 14 day, 55.5 μg/ml)?
A: Its value is 39.96 ± 0.90%.

Q: What about the “Inhibitory effect (%)” value ([1]; 14 day, 74 μg/ml) of the same compound?
A: Its value is 51.77 ± 1.91%.

Q: And the “inhibitory effect (IC50, μg/ml)” value ([1]; 28 day)?
A: Its value is 91.30 µg/mL.

Q: And the “Inhibitory effect (%)” value ([1]; 28 day, 18.5 μg/ml)?
A: Its value is 14.89 ± 4.11%.

Q: And the “Inhibitory effect (%)” value ([1]; 28 day, 37.0 μg/ml)?
A: The value was 24.93 ± 3.46%.

Q: What about the “Inhibitory effect (%)” value ([1]; 28 day, 92.5 μg/ml) of the same compound?
A: Its value is 50.41 ± 0.41%.

Q: How did the “inhibition of advanced glycation endproduct generation” value [1] turn out when `C=C(C)C1CCC2(CO)CCC3(C)C(CCC4C5(C)CCC(OC(=O)C=Cc6ccc(O)c(O)c6)C(C)(C)C5CCC43C)C12` (stereo not drawn) [betuline-3β-yl-caffeate] was run?
A: The value was “confirmed to inhibit”.

Q: What about the “inhibition of aldose reductase activity” value (aldose reductase) of the same compound?
A: Its value is “confirmed to inhibit”.

Q: How did the “inhibition of advanced glycation endproduct generation” value [1] turn out when `C=C(C)C1CCC2(C(=O)O)CCC3(C)C(CCC4C5(C)CCC(OC(=O)C=Cc6ccc(O)c(O)c6)C(C)(C)C5CCC43C)C12` (stereo not drawn) [betulinic acid-3β-yl-caffeate] was run?
A: The value was “confirmed to inhibit”.

Q: What about the “inhibition of aldose reductase activity” value (aldose reductase) of the same compound?
A: Its value is “confirmed to inhibit”.
